Reference: ChEMBL document CHEMBL5370619, “Targeting the Tyrosine Kinase 2 (TYK2) Pseudokinase Domain: Discovery of the Selective TYK2 Inhibitor ABBV-712” (J Med Chem, 2023)
Values after ≈ are worked out from the molar mass of the structure shown.

Assays:
CYP3A4 [1] = target: T1, CYP3A4 (Homo sapiens, UniProt P08684); assay: Induction of CYP3A4 in human hepatocytes assessed as fold increase in mRNA level at 10 uM incubated for 24 hrs by RT-qPCR analysis relative to control; type: ADME, cell-based, Hepatocyte; details: read-out: FC
T1 sequence (P08684 whole entry): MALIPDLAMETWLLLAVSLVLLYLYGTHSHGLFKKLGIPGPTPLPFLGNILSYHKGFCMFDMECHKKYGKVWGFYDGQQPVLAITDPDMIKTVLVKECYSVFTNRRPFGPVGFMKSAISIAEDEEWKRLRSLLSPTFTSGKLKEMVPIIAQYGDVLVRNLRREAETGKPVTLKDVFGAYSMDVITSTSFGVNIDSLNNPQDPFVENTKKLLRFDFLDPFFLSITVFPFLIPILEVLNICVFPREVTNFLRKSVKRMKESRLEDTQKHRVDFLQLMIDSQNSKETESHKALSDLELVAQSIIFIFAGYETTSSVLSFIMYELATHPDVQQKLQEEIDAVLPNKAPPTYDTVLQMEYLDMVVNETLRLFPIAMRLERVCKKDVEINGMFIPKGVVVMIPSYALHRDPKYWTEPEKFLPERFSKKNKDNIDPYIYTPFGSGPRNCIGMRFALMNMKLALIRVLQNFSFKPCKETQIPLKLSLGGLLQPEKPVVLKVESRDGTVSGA

[2] = target: T2, Non-receptor tyrosine-protein kinase TYK2 (Homo sapiens, UniProt P29597); assay: Inhibition of TYK2 in human T-blast cells assessed as IL-12 induced STAT4 phosphorylation at Tyr694 residue preincubated for 30 mins followed by IL-12 stimulation and measured after 20 mins by AlphaScreen assay; type: cell-based, T-blast cell
T2 sequence (P29597 whole entry): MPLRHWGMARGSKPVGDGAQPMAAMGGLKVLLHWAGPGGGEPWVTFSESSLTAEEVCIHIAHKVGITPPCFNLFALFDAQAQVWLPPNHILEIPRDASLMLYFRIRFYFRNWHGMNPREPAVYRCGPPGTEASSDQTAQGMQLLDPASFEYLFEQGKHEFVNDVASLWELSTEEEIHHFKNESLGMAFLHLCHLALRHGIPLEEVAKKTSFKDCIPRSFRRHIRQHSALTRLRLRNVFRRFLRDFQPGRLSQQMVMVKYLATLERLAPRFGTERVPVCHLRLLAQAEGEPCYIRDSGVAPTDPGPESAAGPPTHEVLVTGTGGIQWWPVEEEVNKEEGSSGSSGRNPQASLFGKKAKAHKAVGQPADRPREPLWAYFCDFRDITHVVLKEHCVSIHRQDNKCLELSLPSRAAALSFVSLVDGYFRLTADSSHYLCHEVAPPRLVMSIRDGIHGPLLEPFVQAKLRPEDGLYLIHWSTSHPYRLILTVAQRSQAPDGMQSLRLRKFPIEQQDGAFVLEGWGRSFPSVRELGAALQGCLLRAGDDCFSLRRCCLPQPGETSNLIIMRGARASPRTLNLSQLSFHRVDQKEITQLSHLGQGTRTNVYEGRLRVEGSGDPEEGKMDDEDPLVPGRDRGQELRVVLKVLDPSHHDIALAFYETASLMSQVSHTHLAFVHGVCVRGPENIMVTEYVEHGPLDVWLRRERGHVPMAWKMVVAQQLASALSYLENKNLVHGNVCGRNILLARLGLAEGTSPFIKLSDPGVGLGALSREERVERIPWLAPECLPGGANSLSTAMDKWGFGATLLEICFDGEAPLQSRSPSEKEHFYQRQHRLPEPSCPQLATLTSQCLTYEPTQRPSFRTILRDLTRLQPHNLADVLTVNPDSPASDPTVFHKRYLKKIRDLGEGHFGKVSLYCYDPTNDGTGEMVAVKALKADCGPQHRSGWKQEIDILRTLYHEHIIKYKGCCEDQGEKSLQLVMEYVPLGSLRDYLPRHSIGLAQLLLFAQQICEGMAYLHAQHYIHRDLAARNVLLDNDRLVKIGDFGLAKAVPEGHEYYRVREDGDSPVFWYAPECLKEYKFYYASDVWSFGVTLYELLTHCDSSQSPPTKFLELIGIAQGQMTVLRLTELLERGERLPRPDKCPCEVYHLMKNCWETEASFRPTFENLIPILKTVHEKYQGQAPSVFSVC

[3] = Half life in rat at 1 mg/kg, iv or 1 mg/kg,po; type: ADME, organism-based; details: in vivo
Mus musculus [4] = assay: Anti-inflammatory activity in po dosed B10.RII mouse model of mouse IL-23 mini circle induced psoriasiform dermatitis assessed as decrease in ear thickness measured at 1 to 100 ng/ml of whole blood drug exposure level measured after 30 mins; type: functional, organism-based; details: 0.5 h
[5] = In vivo inhibition of TYK2 in IL-12/IL-18 induced C57/B6 mouse model assessed as reduction in serum IFN-gamma production at 600 mg/kg,po pretreated for 30 mins prior to IL-12/IL-18 challenge and measured after 4 hrs by MSD assay; type: functional; details: C57/B6, 4.5 h, time 270 min
CYP3A4 [6] = target: T1, CYP3A4; assay: Induction of CYP3A4 in human hepatocytes assessed as maximum activation in mRNA level at 10 uM incubated for 24 hrs by RT-qPCR analysis relative to control; type: ADME, cell-based, Hepatocyte; details: read-out: max activation
[7] = Half life in cynomolgus monkey at 1 mg/kg, iv; type: ADME, organism-based, Macaca fascicularis; details: in vivo
[8] = target: Tyrosine-protein kinase JAK2 (Homo sapiens, UniProt O60674); assay: Inhibition of JAK2 in human UT7 cells assessed as reduction in erythropoietin induced STAT5 phosphorylation preincubated for 30 mins followed by erythropoietin stimulation and measured after 20 mins by AlphaScreen assay; type: cell-based
Sequence of Tyrosine-protein kinase JAK2 (O60674 whole entry): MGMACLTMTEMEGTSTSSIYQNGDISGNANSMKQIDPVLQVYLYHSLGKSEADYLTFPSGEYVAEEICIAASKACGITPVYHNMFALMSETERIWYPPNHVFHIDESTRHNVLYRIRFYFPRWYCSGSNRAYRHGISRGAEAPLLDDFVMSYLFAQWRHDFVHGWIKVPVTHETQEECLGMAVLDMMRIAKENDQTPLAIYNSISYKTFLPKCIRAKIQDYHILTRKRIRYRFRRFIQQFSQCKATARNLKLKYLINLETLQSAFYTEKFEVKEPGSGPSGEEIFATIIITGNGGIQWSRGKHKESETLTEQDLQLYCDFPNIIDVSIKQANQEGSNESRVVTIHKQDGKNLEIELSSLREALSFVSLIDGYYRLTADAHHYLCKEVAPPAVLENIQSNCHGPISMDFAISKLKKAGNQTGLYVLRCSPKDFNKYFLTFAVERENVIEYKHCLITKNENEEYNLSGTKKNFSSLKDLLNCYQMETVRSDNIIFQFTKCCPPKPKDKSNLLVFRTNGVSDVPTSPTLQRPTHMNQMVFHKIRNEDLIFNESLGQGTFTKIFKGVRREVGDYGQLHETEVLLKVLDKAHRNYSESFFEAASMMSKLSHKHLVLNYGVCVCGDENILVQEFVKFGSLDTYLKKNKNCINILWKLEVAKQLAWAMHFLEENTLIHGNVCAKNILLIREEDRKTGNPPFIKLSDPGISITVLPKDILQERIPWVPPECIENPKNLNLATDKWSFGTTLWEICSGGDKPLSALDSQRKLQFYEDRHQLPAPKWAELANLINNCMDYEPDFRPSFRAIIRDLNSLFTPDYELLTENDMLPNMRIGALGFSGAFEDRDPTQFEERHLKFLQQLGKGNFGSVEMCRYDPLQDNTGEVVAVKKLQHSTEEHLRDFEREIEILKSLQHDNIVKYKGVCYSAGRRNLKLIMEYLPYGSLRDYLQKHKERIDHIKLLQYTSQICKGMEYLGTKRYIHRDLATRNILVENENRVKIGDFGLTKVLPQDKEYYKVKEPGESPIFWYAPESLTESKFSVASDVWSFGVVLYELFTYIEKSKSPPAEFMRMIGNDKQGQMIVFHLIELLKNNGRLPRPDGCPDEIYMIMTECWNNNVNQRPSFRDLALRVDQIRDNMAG

Mus musculus [9] = assay: Anti-inflammatory activity in B10.RII mouse model of mouse IL-23 mini circle induced psoriasiform dermatitis assessed as decrease in ear thickness at 30 mg/kg,po BID for 5 days by caliper analysis; type: functional; set-up: scale not given: the % may be the effect or the level left; details: time 5 day
CYP3A4 [10] = target: T1, CYP3A4; assay: Time dependent inhibition of CYP3A4 in human liver microsomes using midazolam as substrate assessed as 1'-OH midazolam metabolite formation at 50 uM preincubated for 30 mins in presence of NADPH followed by substrate addition and measured after 15 mins by HPLC-MS/MS analysis relative to control; type: ADME, Microsome; details: probe midazolam, time 45 min, read-out: TDI
[11] = target: Tyrosine-protein kinase JAK1 (Homo sapiens, UniProt P23458); assay: Inhibition of JAK1 in human TF-1 cells assessed as reduction in IL-6 induced STAT3 phosphorylation at Tyr705 residue preincubated for 30 mins followed by IL-6 stimulation and measured after 30 mins by AlphaScreen assay; type: cell-based
Sequence of Tyrosine-protein kinase JAK1 (P23458 whole entry): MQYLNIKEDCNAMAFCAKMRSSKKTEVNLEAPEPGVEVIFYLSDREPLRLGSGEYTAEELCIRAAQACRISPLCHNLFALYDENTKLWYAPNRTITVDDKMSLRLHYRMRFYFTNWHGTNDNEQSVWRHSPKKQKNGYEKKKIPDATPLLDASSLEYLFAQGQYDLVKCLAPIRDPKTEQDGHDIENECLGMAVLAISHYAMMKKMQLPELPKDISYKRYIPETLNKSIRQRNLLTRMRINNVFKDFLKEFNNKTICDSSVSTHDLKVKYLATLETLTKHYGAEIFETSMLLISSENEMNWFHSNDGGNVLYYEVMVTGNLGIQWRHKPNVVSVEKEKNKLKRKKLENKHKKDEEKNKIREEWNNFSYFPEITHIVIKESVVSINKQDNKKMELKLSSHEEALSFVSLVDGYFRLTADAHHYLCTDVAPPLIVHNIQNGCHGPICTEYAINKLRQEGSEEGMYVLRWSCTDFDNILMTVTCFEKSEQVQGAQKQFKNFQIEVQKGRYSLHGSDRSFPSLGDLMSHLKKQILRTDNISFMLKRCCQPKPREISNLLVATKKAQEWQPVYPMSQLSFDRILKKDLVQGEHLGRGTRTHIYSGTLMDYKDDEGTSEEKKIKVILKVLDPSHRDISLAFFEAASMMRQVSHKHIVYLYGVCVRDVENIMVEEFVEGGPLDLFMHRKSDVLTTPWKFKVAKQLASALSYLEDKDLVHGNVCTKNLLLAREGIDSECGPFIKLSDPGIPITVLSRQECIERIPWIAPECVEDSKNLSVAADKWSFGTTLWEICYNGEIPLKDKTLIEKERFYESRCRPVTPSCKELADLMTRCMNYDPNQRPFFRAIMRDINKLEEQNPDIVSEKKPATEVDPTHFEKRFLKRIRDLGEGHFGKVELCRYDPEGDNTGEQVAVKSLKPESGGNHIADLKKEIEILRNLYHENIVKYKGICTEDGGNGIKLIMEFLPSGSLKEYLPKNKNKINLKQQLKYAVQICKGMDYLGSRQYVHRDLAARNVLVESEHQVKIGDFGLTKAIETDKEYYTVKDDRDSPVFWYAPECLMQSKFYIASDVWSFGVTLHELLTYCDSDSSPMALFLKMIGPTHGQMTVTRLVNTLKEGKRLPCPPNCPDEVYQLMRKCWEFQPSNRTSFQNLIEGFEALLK

[12] = In vivo inhibition of TYK2 in po dosed IL-12/IL-18 induced C57/B6 mouse model assessed as reduction in serum IFN-gamma production measured at 1 to 10000 ng/ml of whole blood drug exposure level measured after 30 mins; type: functional, organism-based; details: C57/B6, 0.5 h
[13] = In vivo inhibition of TYK2 in IL-12/IL-18 induced C57/B6 mouse model assessed as reduction in serum IFN-gamma production at 300 mg/kg,po pretreated for 30 mins prior to IL-12/IL-18 challenge and measured after 4 hrs by MSD assay; type: functional; details: C57/B6, 4.5 h, time 270 min
[14] = Metabolic stability in dog hepatocytes assessed as intrinsic clearance for unbound fraction of drug; type: ADME, cell-based, Canis lupus familiaris, Hepatocyte
[15] = target: T2, Non-receptor tyrosine-protein kinase TYK2; assay: Inhibition of TYK2 in human whole blood assessed as decrease in STAT4 phosphorylation preincubated for 30 mins followed by human IL-23 stimulation and measured after 20 mins by flow cytometry; type: tissue-based
[16] = target: T3, Tyrosine-protein kinase JAK3 (Homo sapiens, UniProt P52333); assay: Inhibition of JAK3 in human T-blast cells assessed as reduction in IL-2 induced STAT5 phosphorylation preincubated for 30 mins followed by IL-2 stimulation and measured after 20 mins by AlphaScreen assay; type: cell-based, T-blast cell
T3 sequence (P52333 whole entry): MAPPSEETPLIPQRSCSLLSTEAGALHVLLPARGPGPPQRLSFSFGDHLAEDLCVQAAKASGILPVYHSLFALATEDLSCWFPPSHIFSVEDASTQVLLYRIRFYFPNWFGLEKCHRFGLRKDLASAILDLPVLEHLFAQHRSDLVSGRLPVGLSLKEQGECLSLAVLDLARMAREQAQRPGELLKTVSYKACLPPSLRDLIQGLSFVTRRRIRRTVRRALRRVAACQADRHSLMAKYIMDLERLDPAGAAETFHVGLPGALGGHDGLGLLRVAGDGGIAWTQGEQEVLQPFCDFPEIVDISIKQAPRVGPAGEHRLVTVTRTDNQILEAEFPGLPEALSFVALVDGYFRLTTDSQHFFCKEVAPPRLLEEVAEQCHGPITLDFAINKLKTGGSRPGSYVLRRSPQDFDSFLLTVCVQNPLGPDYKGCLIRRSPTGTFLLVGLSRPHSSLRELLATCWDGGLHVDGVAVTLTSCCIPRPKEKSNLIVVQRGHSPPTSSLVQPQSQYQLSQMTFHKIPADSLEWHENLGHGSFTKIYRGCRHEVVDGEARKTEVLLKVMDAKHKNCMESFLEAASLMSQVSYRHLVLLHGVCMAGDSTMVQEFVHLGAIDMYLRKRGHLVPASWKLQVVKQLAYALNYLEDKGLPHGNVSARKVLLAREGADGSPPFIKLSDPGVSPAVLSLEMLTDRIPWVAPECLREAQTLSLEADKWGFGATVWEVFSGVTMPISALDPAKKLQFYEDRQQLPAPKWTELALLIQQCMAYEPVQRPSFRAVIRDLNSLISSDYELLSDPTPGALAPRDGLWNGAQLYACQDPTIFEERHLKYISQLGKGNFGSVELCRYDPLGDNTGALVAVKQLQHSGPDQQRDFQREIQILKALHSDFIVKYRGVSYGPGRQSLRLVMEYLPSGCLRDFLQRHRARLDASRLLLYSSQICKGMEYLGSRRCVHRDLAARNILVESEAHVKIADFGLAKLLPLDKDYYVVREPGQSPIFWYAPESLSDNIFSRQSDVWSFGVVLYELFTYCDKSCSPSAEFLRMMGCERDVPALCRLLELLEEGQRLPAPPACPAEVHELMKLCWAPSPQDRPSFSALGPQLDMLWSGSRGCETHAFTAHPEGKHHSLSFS

[17] = Oral bioavailability in dog at 1 mg/kg; type: ADME, organism-based, Canis lupus familiaris; details: in vivo
[18] = AUC (0 to infinity) in cynomolgus monkey at 1 mg/kg,po; type: ADME, organism-based, Macaca fascicularis; set-up: dose 1 mg/kg, route po; details: in vivo
Mus musculus [19] = assay: Anti-inflammatory activity in B10.RII mouse model of mouse IL-23 mini circle induced psoriasiform dermatitis assessed as decrease in ear thickness at 100 mg/kg,po BID for 5 days by caliper analysis; type: functional; set-up: scale not given: the % may be the effect or the level left; details: time 5 day
[20] = In vivo inhibition of TYK2 in IL-12/IL-18 induced C57/B6 mouse model assessed as reduction in serum IFN-gamma production at 30 mg/kg,po pretreated for 30 mins prior to IL-12/IL-18 challenge and measured after 4 hrs by MSD assay; type: functional; details: C57/B6, 4.5 h, time 270 min

fold induction at 24 h, 10 µM (CYP3A4 [1]): 1.5
EC50 [2]: 195 nM
half-life [3]: 36 min
EC50 (Mus musculus [4]): 0.104 µg/mL (≈ 0.23 µM)
Emax at 24 h, 10 µM (CYP3A4 [6]): 2%
half-life [7]: 72 min
EC50 [8]: > 20000 nM
inhibition at 0.25 h, 50 µM (CYP3A4 [10]): 22%
EC50 [11]: > 20000 nM
IC50 [12]: 3.08 µg/mL (≈ 6.81 µM)
CL free [14]: 21.7 mL/min/kg
EC50 [15]: 160 nM
EC50 [16]: > 20000 nM
bioavailability [17]: 88%
AUC(0-inf) [18]: 80 ng·h/mL
Structure (SMILES): COCc1cc(-c2cn(C3COC3)c3cnc(NC(C)=O)cc23)nc([C@]2(OC)CCOC2)c1
inhibition in vivo at 600 mg/kg [5]: 99%
Activity (Mus musculus [9]): 51%
inhibition in vivo at 300 mg/kg [13]: 95%
Activity (Mus musculus [19]): 61%
inhibition in vivo at 30 mg/kg [20]: 77%
